Laboratory results as given in ChEMBL document CHEMBL4311949, “Design, Synthesis, Evaluation, and Structural Studies of C2-Symmetric Small Molecule Inhibitors of Programmed Cell Death-1/Programmed Death-Ligand 1 Protein-Protein Interaction” (J Med Chem, 2019).
Active and inactive are the calls of the source. The calls are words filed in the database; no cut-off is given here.

How the values were obtained:
[1] = target: T1, Programmed cell death protein 1/Programmed cell death 1 ligand 1 (Homo sapiens, UniProt Q9NZQ7); assay: Inhibition of human Fc-tagged PD1 N-terminal domain (Leu25 to Gln167 residues) expressed in HEK293 cells/human His-tagged PDL1 (Phe19 to Arg238 residues) expressed in HEK293 cells protein-protein interaction after 1 hr by APC-labeled anti-His antibody/Eu-labeled anti-human IgG based HTRF assay; type: cell-based
[2] = target: Programmed cell death 1 ligand 1 (Homo sapiens) (UniProt Q9NZQ7); assay: Binding affinity to 15N-labelled human PDL1 assessed as induction of protein oligomerization by 1H-15N HMQC spectra analysis
[3] = Toxicity weighted activity index, ratio of GI50 for cytotoxicity against CHOK1 cells stably expressing human PDL1 co-cultured with human Jurkat T cell expressing human PD1 to EC50 for inhibition of human PD1 stably expressed in human Jurkat T cells co-expressing NFAT-induced luciferase/human PDL1 stably expressed in CHOK1 cells co-expressing aAPC protein-protein interaction; type: cell-based; details: chinese hamster; read-out: Ratio GI50/EC50
[4] = target: Programmed cell death protein 1/Programmed cell death 1 ligand 1 (Homo sapiens) (UniProt Q15116+Q9NZQ7); assay: (§1) Inhibition of PD1/PDL1 interaction in human Jurkat cells co-cultured with human U2OS cells expressing PDL1 assessed as reduction in SHP1 recruitment preincubated with U2OS cells for 60 mins followed by Jurkat cell addition and measured after 2 hrs by Pathhunter chemiluminescent assay; type: cell-based
[5] = target: T1, Programmed cell death protein 1/Programmed cell death 1 ligand 1; assay: as §1; type: cell-based
[6] = Toxicity weighted activity index, ratio of GI50 for Cytotoxicity against human Jurkat T cell expressing human PD1 co-cultured with CHOK1 cells stably expressing human PDL1 to EC50 for inhibition of PD1/PDL1 interaction in human Jurkat cells co-cultured with human U2OS cells expressing PDL1; type: cell-based; details: read-out: Ratio GI50/EC50
[7] = Cytotoxicity against CHOK1 cells stably expressing human PDL1 co-cultured with human Jurkat T cell expressing human PD1 measured after 24 hrs by XTT assay; type: cell-based, Cricetulus griseus, CHO-K1; details: chinese hamster; read-out: MNCC
[8] = Cytotoxicity against human Jurkat T cell expressing human PD1 co-cultured with CHOK1 cells stably expressing human PDL1 measured after 24 hrs by XTT assay; type: cell-based; details: read-out: MNCC
[9] = target: T1, Programmed cell death protein 1/Programmed cell death 1 ligand 1; assay: Inhibition of human PD1 stably expressed in human Jurkat T cells co-expressing NFAT-induced luciferase/human PDL1 stably expressed in CHOK1 cells co-expressing aAPC protein-protein interaction assessed as increase in NFAT signaling measured after 6 hrs by bio-glo luciferase reporter gene assay; type: cell-based
[10] = target: Programmed cell death 1 ligand 1 (Homo sapiens) (UniProt Q9NZQ7); assay: Binding affinity to 15N-labelled human PDL1 assessed as induction of oligomerization by 1H-NMR spectra analysis
[11] = Toxicity weighted activity index, ratio of GI50 for cytotoxicity against CHOK1 cells stably expressing human PDL1 co-cultured with human Jurkat T cell expressing human PD1 to EC50 for inhibition of PD1/PDL1 interaction in human Jurkat cells co-cultured with human U2OS cells expressing PDL1; type: cell-based; details: chinese hamster; read-out: Ratio GI50/EC50
[12] = Toxicity weighted activity index, ratio of GI50 for Cytotoxicity against human Jurkat T cell expressing human PD1 co-cultured with CHOK1 cells stably expressing human PDL1 to EC50 for inhibition of human PD1 stably expressed in human Jurkat T cells co-expressing NFAT-induced luciferase/human PDL1 stably expressed in CHOK1 cells co-expressing aAPC protein-protein interaction; type: cell-based; details: read-out: Ratio GI50/EC50
[13] = Cytotoxicity against human Jurkat T cell expressing human PD1 co-cultured with CHOK1 cells stably expressing human PDL1 assessed as growth inhibition measured after 24 hrs by XTT assay; type: cell-based
[14] = Cytotoxicity against CHOK1 cells stably expressing human PDL1 co-cultured with human Jurkat T cell expressing human PD1 assessed as growth inhibition measured after 24 hrs by XTT assay; type: cell-based, Cricetulus griseus, CHO-K1; details: chinese hamster

T1 sequence (Q15116 whole entry, the tested form may be a part): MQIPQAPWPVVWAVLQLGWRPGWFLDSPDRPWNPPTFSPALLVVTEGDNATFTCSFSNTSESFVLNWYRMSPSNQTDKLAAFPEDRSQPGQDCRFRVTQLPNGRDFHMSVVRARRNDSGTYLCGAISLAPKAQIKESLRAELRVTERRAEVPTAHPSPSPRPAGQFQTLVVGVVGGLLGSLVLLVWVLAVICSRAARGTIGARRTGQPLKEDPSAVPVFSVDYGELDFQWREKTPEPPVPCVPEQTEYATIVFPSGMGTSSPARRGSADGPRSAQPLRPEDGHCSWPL
T1 sequence (Q9NZQ7 whole entry, the tested form may be a part): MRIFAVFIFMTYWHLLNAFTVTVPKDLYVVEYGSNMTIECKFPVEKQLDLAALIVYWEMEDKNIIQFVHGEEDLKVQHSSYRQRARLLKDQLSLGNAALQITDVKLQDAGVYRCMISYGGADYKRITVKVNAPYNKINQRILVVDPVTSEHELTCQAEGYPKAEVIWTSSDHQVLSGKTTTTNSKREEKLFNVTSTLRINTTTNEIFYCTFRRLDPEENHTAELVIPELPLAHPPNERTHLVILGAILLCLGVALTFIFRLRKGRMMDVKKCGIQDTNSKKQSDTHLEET
Chain of Programmed cell death 1 ligand 1 (Homo sapiens) (Q9NZQ7 whole entry): as the sequence (Q9NZQ7 whole entry, the tested form may be a part) above

Row | Compound | IC50 [1] [µM] | Activity [2] | MNTC at 24 h [7] [nM] | MNTC at 24 h [8] [nM] | Activity [10] | GI50 at 24 h [13] [µM] | GI50 at 24 h [14] [µM] | further results
1 | CCNCc1cc(C)c(OCc2cccc(-c3cccc(COc4cc(OCc5cncc(C#N)c5)c(CNCC)cc4C)c3C)c2C)cc1OCc1cncc(C#N)c1 | 0.0038 |  |  |  |  |  |  | 
2 | CCNCc1cc(C)c(OCc2cccc(-c3ccccc3)c2C)cc1OCc1cncc(C#N)c1 | 0.0022 |  |  |  |  |  |  | 
3 | COc1nc(OCc2cccc(-c3cccc(COc4ccc(CNCCNC(C)=O)c(OC)n4)c3C)c2C)ccc1CNCCNC(C)=O | 0.025 | Active | 2560 | 2560 | Active | 3.1 | 3.1 | selectivity ratio [3]: 0.7; inhibition [4]: Dose-dependent effect; EC50 [5]: 0.334 µM; selectivity ratio [6]: 9.3; EC50 [9]: 4.21 µM; selectivity ratio [11]: 9.3; selectivity ratio [12]: 0.7
4 | CC(=O)NCCNCc1cc(C)c(OCc2cccc(-c3cccc(COc4cc(OCc5cncc(C#N)c5)c(CNCCNC(C)=O)cc4C)c3C)c2C)cc1OCc1cncc(C#N)c1 |  | Active | 2560 | 2560 | Active | 11.8 | 11.8 | inhibition [4]: Dose-dependent effect
5 | CC(=O)NCCNCc1cc(C)c(OCc2cccc(-c3ccccc3)c2C)cc1OCc1cncc(C#N)c1 | 0.0025 | Active | 2560 | 2560 | Active | 8.1 | 8.1 | selectivity ratio [3]: 2.7; EC50 [5]: 0.219 µM; selectivity ratio [6]: 37; EC50 [9]: 3 µM; selectivity ratio [11]: 37; selectivity ratio [12]: 2.7
6 | CC(=O)NCCNCc1ccc(OCc2ccc3cc(COc4ccc(CNCCNC(C)=O)c(OCc5cncc(C#N)c5)c4)ccc3c2)cc1OCc1cncc(C#N)c1 | 1.17 |  |  |  |  |  |  | 
7 | CC(=O)NCCNCc1ccc(OCc2cccc(COc3ccc(CNCCNC(C)=O)c(OCc4cncc(C#N)c4)c3)c2)cc1OCc1cncc(C#N)c1 | > 10 |  |  |  |  |  |  | 
8 | CC(=O)NCCNCc1ccc(OCc2ccc(COc3ccc(CNCCNC(C)=O)c(OCc4cncc(C#N)c4)c3)c3ccccc23)cc1OCc1cncc(C#N)c1 | 0.462 |  |  |  |  |  |  | 
9 | COc1nc(OCc2cccc(-c3ccccc3)c2C)ccc1CNCCNC(C)=O |  |  | 2560 | 2560 |  | 4.5 | 4.5 | 
10 | CC(=O)NCCNCc1ccc(OCc2ccc(COc3ccc(CNCCNC(C)=O)c(OCc4cncc(C#N)c4)c3)cc2)cc1OCc1cncc(C#N)c1 | 8.24 |  |  |  |  |  |  | 
